Assay results from ChEMBL document CHEMBL5614442, “Discovery, synthesis and biological evaluation of novel isoquinoline derivatives as potent indoleamine 2, 3-dioxygenase 1 and tryptophan 2, 3-dioxygenase dual inhibitors” (Eur J Med Chem, 2024).
Blank lines part the entries; values can stand above or below the compound they belong to.

How the values were obtained:
[1] = biological target: T1, Tryptophan 2,3-dioxygenase (Homo sapiens, UniProt P48775)
Target sequence in this assay (P48775 whole entry): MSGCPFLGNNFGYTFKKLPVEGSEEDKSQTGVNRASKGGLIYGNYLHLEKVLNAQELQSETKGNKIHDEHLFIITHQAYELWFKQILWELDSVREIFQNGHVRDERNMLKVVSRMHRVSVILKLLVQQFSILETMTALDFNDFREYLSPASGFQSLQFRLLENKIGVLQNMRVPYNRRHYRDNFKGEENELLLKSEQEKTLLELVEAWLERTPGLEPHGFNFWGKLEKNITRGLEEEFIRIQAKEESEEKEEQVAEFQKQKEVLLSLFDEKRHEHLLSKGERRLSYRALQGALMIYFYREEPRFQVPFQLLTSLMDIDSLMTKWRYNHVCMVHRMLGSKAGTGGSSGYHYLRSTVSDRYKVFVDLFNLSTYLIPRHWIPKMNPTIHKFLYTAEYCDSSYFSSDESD

[2] = biological target: T2, Indoleamine 2,3-dioxygenase 1 (Homo sapiens, UniProt P14902); test: Inhibition of N-terminal His-tagged recombinant human IDO1 extracted from Escherichia coli Transetta (DE3) using L-tryptophan as substrate preincubated for 5 mins followed by substrate addition and measured after 1 hrs by absorbance based microplate reader
Target sequence in this assay (P14902 whole entry): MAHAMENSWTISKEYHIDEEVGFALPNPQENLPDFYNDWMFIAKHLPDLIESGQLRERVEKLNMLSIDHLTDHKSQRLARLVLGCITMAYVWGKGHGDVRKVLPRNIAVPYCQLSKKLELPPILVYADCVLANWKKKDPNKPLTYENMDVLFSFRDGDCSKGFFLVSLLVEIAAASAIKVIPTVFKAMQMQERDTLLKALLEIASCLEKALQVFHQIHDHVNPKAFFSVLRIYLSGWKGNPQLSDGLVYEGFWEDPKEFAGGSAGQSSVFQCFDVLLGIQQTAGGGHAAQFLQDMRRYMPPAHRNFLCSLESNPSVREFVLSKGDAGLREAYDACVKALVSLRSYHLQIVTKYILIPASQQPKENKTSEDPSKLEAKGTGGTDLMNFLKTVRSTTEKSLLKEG

[3] = Half-life in male Sprague-Dawley rat at 100 mg/kg, po measured after 8 hrs by LC-MS analysis; assay type: ADME, organism-based; conditions: in vivo
[4] = biological target: T2, Indoleamine 2,3-dioxygenase 1; test: Inhibition of IDO1 in IFN-gamma induced human HeLa cells using L-tryptophan as substrate incubated for 24 hrs by absorbance based microplate analysis; assay type: cell-based
Target sequence in this assay (P14902 whole entry): as above

[5] = Clearance in male Sprague-Dawley rat at 100 mg/kg, po measured after 8 hrs by LC-MS analysis; assay type: ADME, organism-based; conditions: in vivo
[6] = biological target: T2, Indoleamine 2,3-dioxygenase 1; test: Binding affinity to recombinant human IDO1 assessed as dissociation rate constant at 0.78 to 25 uM by SPR analysis
Target sequence in this assay (P14902 whole entry): as above

[7] = Volume of distribution in male Sprague-Dawley rat at 2 mg/kg, iv measured after 8 hrs by LC-MS analysis; assay type: ADME, organism-based; conditions: in vivo
[8] = biological target: T2, Indoleamine 2,3-dioxygenase 1; conditions: dose 0.78-25 µM
Target sequence in this assay (P14902 whole entry, looked up): as the sequence (P14902 whole entry) above

[9] = Volume of distribution in male Sprague-Dawley rat at 20 mg/kg, ip measured after 8 hrs by LC-MS analysis; assay type: ADME, organism-based; conditions: in vivo
[10] = Toxicity in male C57BL/6 mouse implanted with mouse B16-F10 cells assessed as effect on spleen morphology at 25 to 100 mg/kg, ip administered once daily for 14 days by H and E staining based analysis; assay type: organism-based; conditions: in vivo, 336 h, dose 25-100 mg/kg, time 14 day
[11] = Cmax in male Sprague-Dawley rat at 2 mg/kg, iv measured after 8 hrs by LC-MS analysis; assay type: ADME, organism-based; conditions: in vivo
[12] = Toxicity in male C57BL/6 mouse implanted with mouse B16-F10 cells assessed as effect on liver morphology at 25 to 100 mg/kg, ip administered once daily for 14 days by H and E staining based analysis; assay type: organism-based; conditions: in vivo, 336 h, dose 25-100 mg/kg, time 14 day
[13] = Cmax in male Sprague-Dawley rat at 20 mg/kg, ip measured after 8 hrs by LC-MS analysis; assay type: ADME, organism-based; conditions: in vivo
[14] = system: B16-F10; test: Antitumor activity against mouse B16-F10 cells implanted in male C57BL/6 mouse model assessed as suppression of tumor growth administered intraperitoneally once daily for 14 days; assay type: functional, cell-based; conditions: dose 25-100 mg/kg, route ip, time 14.0 day
[15] = AUC (0 to infinity) in male Sprague-Dawley rat at 20 mg/kg, ip measured after 8 hrs by LC-MS analysis; assay type: ADME, organism-based; conditions: in vivo
[16] = Tmax in male Sprague-Dawley rat at 2 mg/kg, iv measured after 8 hrs by LC-MS analysis; assay type: ADME, organism-based; conditions: in vivo
[17] = Cmax in male Sprague-Dawley rat at 100 mg/kg, po measured after 8 hrs by LC-MS analysis; assay type: ADME, organism-based; conditions: in vivo
[18] = Half-life in male Sprague-Dawley rat at 2 mg/kg, iv measured after 8 hrs by LC-MS analysis; assay type: ADME, organism-based; conditions: in vivo
[19] = Tmax in male Sprague-Dawley rat at 20 mg/kg, ip measured after 8 hrs by LC-MS analysis; assay type: ADME, organism-based; conditions: in vivo
[20] = system: U-87 MG; test: Cytotoxicity against human U87 cells assessed as reduction in cell viability at effective concentration incubated for 24 hrs by CCK8 assay; assay type: toxicity, cell-based; conditions: u-87mg atcc
[21] = biological target: T1, Tryptophan 2,3-dioxygenase; remark: listed apart in the source
Target sequence in this assay (P48775 whole entry): as the sequence (P48775 whole entry) above

[22] = Clearance in male Sprague-Dawley rat at 2 mg/kg, iv measured after 8 hrs by LC-MS analysis; assay type: ADME, organism-based; conditions: in vivo
[23] = Toxicity in male C57BL/6 mouse implanted with mouse B16-F10 cells assessed as body weight loss at 25 to 100 mg/kg, ip administered once daily for 14 days; assay type: organism-based; conditions: in vivo, 336 h, dose 25-100 mg/kg, time 14 day
[24] = AUC (0 to infinity) in male Sprague-Dawley rat at 100 mg/kg, po measured after 8 hrs by LC-MS analysis; assay type: ADME, organism-based; conditions: in vivo
[25] = Oral bioavailability in male Sprague-Dawley rat at 100 mg/kg measured after 8 hrs by LC-MS analysis; assay type: ADME, organism-based; conditions: in vivo
[26] = Tmax in male Sprague-Dawley rat at 100 mg/kg, po measured after 8 hrs by LC-MS analysis; assay type: ADME, organism-based; conditions: in vivo
[27] = Volume of distribution in male Sprague-Dawley rat at 100 mg/kg, po measured after 8 hrs by LC-MS analysis; assay type: ADME, organism-based; conditions: in vivo
[28] = Bioavailability in male Sprague-Dawley rat at 20 mg/kg, ip measured after 8 hrs by LC-MS analysis; assay type: ADME, organism-based; conditions: in vivo
[29] = Half-life in male Sprague-Dawley rat at 20 mg/kg, ip measured after 8 hrs by LC-MS analysis; assay type: ADME, organism-based; conditions: in vivo
[30] = AUC (0 to t) in male Sprague-Dawley rat at 20 mg/kg, ip measured after 8 hrs by LC-MS analysis; assay type: ADME, organism-based; conditions: in vivo
[31] = AUC (0 to t) in male Sprague-Dawley rat at 100 mg/kg, po measured after 8 hrs by LC-MS analysis; assay type: ADME, organism-based; conditions: in vivo
[32] = system: HeLa; test: Cytotoxicity against human HeLa cells assessed as reduction in cell viability at effective concentration incubated for 24 hrs by CCK8 assay; assay type: toxicity, cell-based
[33] = biological target: T1, Tryptophan 2,3-dioxygenase; conditions: dose 0.78-25 µM
Target sequence in this assay (P48775 whole entry, looked up): as the sequence (P48775 whole entry) above

[34] = Toxicity in male C57BL/6 mouse implanted with mouse B16-F10 cells assessed as effect on heart morphology at 25 to 100 mg/kg, ip administered once daily for 14 days by H and E staining based analysis; assay type: organism-based; conditions: in vivo, 336 h, dose 25-100 mg/kg, time 14 day
[35] = system: HEK-293T; test: Cytotoxicity against HEK293T cells assessed as reduction in cell viability at effective concentration incubated for 24 hrs by CCK8 assay; assay type: toxicity, cell-based; conditions: human
[36] = biological target: T1, Tryptophan 2,3-dioxygenase; remark: listed apart in the source
Target sequence in this assay (P48775 whole entry): as above

[37] = system: B16-F10; test: Cytotoxicity against mouse B16-F10 cells assessed as reduction in cell viability at effective concentration incubated for 24 hrs by CCK8 assay; assay type: toxicity, cell-based; conditions: b16-f10, 24 h
[38] = AUC (0 to infinity) in male Sprague-Dawley rat at 2 mg/kg, iv measured after 8 hrs by LC-MS analysis; assay type: ADME, organism-based; conditions: in vivo
[39] = AUC (0 to t) in male Sprague-Dawley rat at 2 mg/kg, iv measured after 8 hrs by LC-MS analysis; assay type: ADME, organism-based; conditions: in vivo
[40] = Clearance in male Sprague-Dawley rat at 20 mg/kg, ip measured after 8 hrs by LC-MS analysis; assay type: ADME, organism-based; conditions: in vivo
[41] = biological target: T2, Indoleamine 2,3-dioxygenase 1; test: Binding affinity to recombinant human IDO1 assessed as equilibrium dissociation constant by SPR analysis
Target sequence in this assay (P14902 whole entry): as the sequence (P14902 whole entry) above

[42] = Toxicity in male C57BL/6 mouse implanted with mouse B16-F10 cells assessed as effect on lung morphology at 25 to 100 mg/kg, ip administered once daily for 14 days by H and E staining based analysis; assay type: organism-based; conditions: in vivo, 336 h, dose 25-100 mg/kg, time 14 day
[43] = Toxicity in male C57BL/6 mouse implanted with mouse B16-F10 cells assessed as effect on kidney morphology at 25 to 100 mg/kg, ip administered once daily for 14 days by H and E staining based analysis; assay type: organism-based; conditions: in vivo, 336 h, dose 25-100 mg/kg, time 14 day

Structure (SMILES): COc1ccc2cc(-c3ccc(C)cc3)ncc2c1O
IC50 [1]: > 100 µM | IC50 [2]: > 100 µM

Structure (SMILES): COc1ccc2cc(-c3ccc(Br)cc3)ncc2c1OC
IC50 [1]: 34.3 µM | IC50 [2]: 78.6 µM

Structure (SMILES): COc1ccc2nc(-c3ccccc3)ncc2c1O
IC50 [1]: > 100 µM | IC50 [2]: > 100 µM

Structure (SMILES): Oc1ccc2cc(-c3ccc4c(c3)OCO4)ncc2c1
IC50 [1]: > 100 µM | IC50 [2]: > 100 µM

Structure (SMILES): COc1ccc2cc(-c3ccc(F)cc3)ncc2c1O
IC50 [1]: 51 µM | IC50 [2]: > 100 µM

Structure (SMILES): COc1ccc2cc(-c3ccc4ncsc4c3)ncc2c1OC
IC50 [1]: > 100 µM | IC50 [2]: > 100 µM

Structure (SMILES): COc1ccc2cc(-c3ccc(NC(=O)c4ccc(C)cc4)cc3)ncc2c1O
IC50 [1]: 45.3 µM | IC50 [2]: > 100 µM

Structure (SMILES): COc1ccc2cc(-c3ccc(C)cc3)ncc2c1OC
IC50 [1]: > 100 µM | IC50 [2]: > 100 µM

Stronger by IC50 [1], values ahead:

IC50 [1]: 25 µM | IC50 [2]: 70.5 µM
Structure (SMILES): Oc1cccc2cc(-c3ccccc3)ncc12

IC50 [1]: 7.97 µM | IC50 [2]: 15.4 µM
Structure (SMILES): COc1ccc2cc(-c3ccc(NS(=O)(=O)N4CCCCC4)cc3)ncc2c1O

IC50 [1]: 4.08 µM | IC50 [2]: 14.2 µM
Structure (SMILES): COc1cccc(C(=O)Nc2ccc(-c3cc4ccc(OC)c(O)c4cn3)cc2)c1

IC50 [1]: 3.25 µM | IC50 [2]: > 100 µM
Structure (SMILES): COc1ccc2cc(-c3ccc(NC(=O)c4ccc(C(F)(F)F)cc4)cc3)ncc2c1O

IC50 [1]: 2.9 µM | IC50 [2]: 11.2 µM
Structure (SMILES): COc1ccc2cc(-c3cccs3)ncc2c1OC

IC50 [1]: 2.72 µM | IC50 [2]: 11.1 µM
Structure (SMILES): COc1ccc(-c2cc3ccc(OC)c(OC)c3cn2)cc1

IC50 [1]: 1.16 µM | IC50 [2]: 6.13 µM
Structure (SMILES): COc1ccc2cc(-c3ccc(NC(=O)C(F)(F)F)cc3)ncc2c1O

IC50 [1]: 1.02 µM | IC50 [2]: 21 µM
Structure (SMILES): COc1ccc2cc(-c3cccs3)ncc2c1O

IC50 [4]: 15.8 µM | IC50 [1]: 0.45 µM | IC50 [2]: 0.71 µM | IC50 [36]: > 30 µM
Structure (SMILES): COc1ccc(-c2cc3ccc(OC)c(O)c3cn2)cc1

IC50 [4]: > 30 µM | IC50 [1]: 0.25 µM | IC50 [2]: 10.1 µM | IC50 [36]: 22.3 µM
Structure (SMILES): COc1ccc2cc(-c3ccc(C(=O)Nc4ccccc4)cc3)ncc2c1O

IC50 [4]: 17.1 µM | IC50 [1]: 0.24 µM | IC50 [2]: 0.89 µM | IC50 [36]: 24 µM
Structure (SMILES): COc1ccc2cc(-c3ccccc3)ncc2c1O

half-life [3]: 2.8 h | IC50 [4]: 9.29 µM | CL/F [5]: 59.7 mL/min/kg | koff [6]: 0.021 s⁻¹ | Vd [7]: 6.9 L/kg | IC50 [1]: 0.08 µM | Ka [8]: 4.69 10^4/Ms | Vd [9]: 5.17 L/kg | Cmax [11]: 3420 ng/mL | IC50 [2]: 0.31 µM | Cmax [13]: 11400 ng/mL | AUC(0-inf) [15]: 6660 ng·h/mL | Tmax [16]: 4.98 min | Cmax [17]: 5190 ng/mL | half-life [18]: 2.14 h | Tmax [19]: 0.25 h | Kd [21]: 0.74 µM | clearance [22]: 37.6 mL/min/kg | AUC(0-inf) [24]: 28400 ng·h/mL | bioavailability [25]: 61.9% | Tmax [26]: 1.33 h | Vd [27]: 14.376 L/kg | bioavailability [28]: 72.6% | half-life [29]: 1.2 h | AUC(0-t) at 8 h [30]: 6690 ng·h/mL | AUC(0-t) at 8 h [31]: 23300 ng·h/mL | Ka [33]: 4.9 10^4/Ms | IC50 [36]: 7.23 µM | AUC(0-inf) [38]: 917 ng·h/mL | AUC(0-t) at 8 h [39]: 916 ng·h/mL | CL/F [40]: 50 mL/min/kg | Kd [41]: 0.45 µM
Structure (SMILES): COc1ccc2cc(-c3ccc(NS(=O)(=O)C(F)(F)F)cc3)ncc2c1O
Activity [10]: Non-Toxic | Activity [12]: Non-Toxic | Activity [14]: Dose-Dependent Effect | Activity [20]: Non-Toxic | Activity [23]: Non-Toxic | Activity [32]: Non-Toxic | Activity [34]: Non-Toxic | Activity [35]: Non-Toxic | Activity [37]: Non-Toxic | Activity [42]: Non-Toxic | Activity [43]: Non-Toxic
